Literature values as cited in patent US5180725A, “Quinoxalinyl/quinoxaliy; alkyl-N-terminal amino hydroxy” (G. D. Searle & Co., priority 1991, dated 1993).
Square brackets hold non-standard residues; d marks the D form. Peptide text beside a SMILES is read from it. * marks the point of attachment. Sta = CC(C)C[C@H](N)[C@@H](O)CC(=O)O; Isovaleryl = CC(C)CC(=O)*

System: hog renin
Settings: after the injection of hog renin into nephrectomized rats

## CC(C)CC(=O)N[C@H](C(=O)N[C@H](C(=O)N[C@@H](CC(C)C)[C@@H](O)CC(=O)N[C@@H](C)C(=O)N[C@@H](CC(C)C)[C@@H](O)CC(=O)O)C(C)C)C(C)C [pepstatin] (Isovaleryl-VV[Sta]A[Sta]-OH)
  blood pressure in vivo: found to reduce blood pressure in vivo
